Earlier results, collected in EP1450788B1, “USE OF COUMARIN OR ITS HYDROXY DERIVATIVE FOR THE TREATMENT OF MEDIUM OR SEVERE VASCULAR AND/OR LYMPHATIC EDEMA” (priority 2001, dated 2003).

Key:
[1] = system: lymphoedema of the upper limbs; conditions: 90 mg/day versus 135 mg/day; lymphoedema of the upper limbs secondary to surgery and irradiation for breast cancer
hepatic tissue = conditions: oral doses of about 200 mg/day

Row | haematic levels, transdermal route relative to oral route (transdermal administration versus oral route) [fold] | Structure (SMILES) | clinical efficacy (apparent benefits of the two coumarin dosages) [1] | cytosolytic hepatocytic enzymes in the plasma (biochemical markers of the hepatic damage) (hepatic tissue) | haematic levels by the transdermic route (transdermal administration)
1 | 10 | O=c1ccc2ccccc2o1 [coumarin, 5,6-benzopyran-2-one] | No difference was found | high concentrations | –
2 | – | O=c1ccc2ccc(O)cc2o1 [7-hydroxy-coumarin, 7-hydroxycoumarin] | – | – | a decrease of the haematic levels
